Earlier results in patent US9290492B2, “Solid forms of antibiotics” (Laboratorios Senosiain S.A. de C.V., priority 2011, dated 2016).

Row | bioavailability (in vivo) [%] | route of excretion (in vivo) | excreted as the unchanged drug (total) (of an oral or intravenous dose) | excreted as the unchanged drug in feces (of an oral or intravenous dose, feces) [%] | excreted as the unchanged drug in urine (of an oral or intravenous dose, urine) [%] | SMILES
1 | 99 | via urine | – | – | – | C[C@H]1COc2c(N3CCN(C)CC3)c(F)cc3c(=O)c(C(=O)O)cn1c23 [Levofloxacin]
2 | – | via the liver | Approximately 45% | ~25 | ~20 | COc1c(N2C[C@@H]3CCCN[C@@H]3C2)c(F)cc2c(=O)c(C(=O)O)cn(C3CC3)c12 [moxifloxacin, Moxifloxacin]
